Source: US8604085B2, “Bupropion hydrobromide polymorphs” (Valeant International Bermuda, priority 2008, dated 2013)

What was measured:
Format in all cases: physicochemical
[1] = Slurries in 2-propanol at room temperature, 50° C. and 80° C.; settings: form by XRD
Protocol: 0.050 g of Form I were suspended in 4 ml of solvent and stirred at room temperature. for 1 week (7 days). The sample was filtered and analyzed by X-ray diffraction.
0.040 g of Form I+0.040 g of Form II were suspended in 4 ml of solvent and stirred at room temperature for 1 week (7 days). The sample was filtered and analyzed by X-ray diffraction experiments.
0.050 g of Form II were suspended in 4 ml of solvent and stirred at room temperature for 1 week (7 days). The sample was filtered and analyzed by X-ray diffraction experiments.
0.050 g of Form I were suspended in 4 ml of solvent and stirred at 50° C. for 1 Week (7 days). The sample was filtered and analyzed by X-ray diffraction experiments.
0.040 g of Form I+0.040 g of Form II were suspended in 4 ml of solvent and stirred at 50° C. for 1 week (7 days). The sample was filtered and analyzed by X-ray diffraction experiments.
Form I+Form II were suspended in solvent and stirred at 80° C. for 14 hours. The sample was filtered and analyzed by X-ray diffraction experiments. […] Slurry in 2-propanol at 80° C. is an atypical experiment because if we consider the boiling point of the solvent, it could be defined as a combination between a slurry and precipitation experiment. Form I was obtained during the precipitation from supersaturated solution by 2-propanol. However the high temperature and the reflux produce the energetic conditions needed by the stable crystal form (Form II) to convert to the metastable crystal form (Form I).

[2] = Stability tests on bupropion hydrobromide polymorphs in humidity chamber (XRD pattern); settings: 40° C., 85% R.H., open sample-holder
Protocol: Stability tests were performed on bupropion hydrobromide Form I, Form II, Form III, Form IV, Form V and Form VI. The powders were stored in a controlled atmosphere (85% R.H.) at 40° C. Form I and Form II were stored for 7 and 30 days respectively, while the other forms were stored only for 30 days. The sample was positioned on the sample-holder which was introduced, without any cover, into the humidity chamber at 40° C. The layer of the sample on the sample-holder was about 0.5 cm.
In addition, stability tests were performed on bupropion hydrobromide Form VII.

[3] = Comparison of the stability of several bupropion salts in open and closed vials at about 40 degrees C. and about 75% relative humidity (HPLC); settings: about 40 degrees C., about 75% relative humidity, various periods of time
Protocol: A comparison of the stability of several bupropion salts, including the hydrobromide, hydrochloride, maleate, tosylate, fumarate, succinate, tartrate and citrate salts, was performed by placing these salts in both open and closed vials in a stability chamber kept at about 40 degrees C. and about 75% relative humidity for various periods of time (e.g. 10 days, 13 days, 14 days, 20 days, 24 days, or 32 days). The stability of the salts was evaluated based on the formation of the main degradation products as determined by HPLC analysis and the % potency (or assay) of the API, after specific time periods in the stability chamber. The effect of the addition of solvents, such as water, ethanol and isopropyl alcohol, was also studied.

[4] = Forced degradation studies of bupropion hydrobromide and bupropion hydrochloride in closed bottles; settings: about 40 degrees C., about 75% relative humidity
Protocol: Further stability tests were performed by directly comparing bupropion hydrobromide and bupropion hydrochloride salts in forced degradation studies. […] At specified times, the material in the bottles was analyzed for the presence of degradation products and % potency (% assay).

| SMILES | Slurry result in 2-propanol ([1]; 50° C., 1 week (7 days)) | Slurry result in 2-propanol ([1]; mixture Form I+Form II, 80° C., 14 hours) | Slurry result in 2-propanol ([1]; room temperature, 1 week (7 days)) | XRD pattern / crystal form after storage ([2]; 7 days) | XRD pattern / crystal form after storage ([2]; 30 days) | amount of degradation products compared with other bupropion salts [3] | % potency compared to the bupropion hydrochloride salt [4] | amount of impurities compared to the bupropion hydrochloride salt [4] |
| --- | --- | --- | --- | --- | --- | --- | --- | --- |
| Br.CC(NC(C)(C)C)C(=O)c1cccc(Cl)c1 (single isomer, unassigned) [Form I] | converted to Form II | remained as Form I | converted to Form II | did not show modification | did not show modification |  |  |  |
| Br.CC(NC(C)(C)C)C(=O)c1cccc(Cl)c1 (centres unmarked) [Bupropion hydrobromide, 3′-chloro-2-t-butylamino-1-propiophenone hydrobromide] |  |  |  |  |  | least amount of degradation products | generally higher | generally lower |
